According to paper PMC8691714 (Cancer Research Communications, 2021):

Key:
[1] = population PK model estimate, mice
[2] = In vivo pharmacokinetic study in mice, oral ibrutinib (plasma, LC-MS/MS); settings: for AUC(0-t) / Cmax / bioavailability: female, plasma, po; for AUC(0-t): Ibrutinib AUC(0-last); for Cmax: Ibrutinib Cmax
Procedure: Experiments were performed with male and female mice from inbred wild-type strains (FVB, C57BL/6, DBA) or with age- and sex-matched genetically engineered mice with a deficiency of the Cyp3a locus [(8 genes; FVB.129P2-Cyp3a13^tm1Ahs Del (5Cyp3a57-Cyp3a59)1Ahs); ref. [16]; CYP3A^−/−], a deficiency of the intestinal transporter OATP2B1 (ref. [17]; OATP2B1 ^−/−), or the hepatic transporter OATP1B2 (ref. [18]; OATP1B2 ^−/−). […] The studies were approved by the University Laboratory Animal Resources Animal Care and Use Committee at The Ohio State University (Columbus, OH). […] For in vivo studies, drugs were prepared in standard vehicles ([19, 20]). Details regarding the preparation of drugs are provided in the Supplementary Methods.
Pharmacokinetic studies were performed as described previously ([21]). Further details are provided in the Supplementary Methods.
The lower limit of quantification was 5 ng/mL, using 5-μL sample volumes. Details regarding the analytic method are provided in the Supplementary Methods.
Ketoconazole was prepared for oral administration as a 10-mg/mL suspension in PEG400, and cobicistat as a 6-mg/mL suspension in corn oil.
Pharmacokinetic studies were performed as previously described.
The analytical equipment consisted of a Vanquish UHPLC system, a TSQ Quantum Ultra triple quadrupole mass spectrometer from Thermo Fisher Scientific, and Thermo Trace Finder General Quan system software (version 3.3). An Accucore Vanquish C18 column (100 × 2.1 mm, dp = 1.5 μm; Thermo Fisher Scientific) was protected by a corresponding XBridgeBEH C18, 5-μm guard column. The injection volume of sample was 5.0 μL. The temperature of the autosampler rack was 4 °C, and the temperature of the column was 40 °C. Mobile phase A consisted of water with 0.1% (v/v) formic acid and mobile phase B consisted of acetonitrile: methanol (1:3) with 0.1% (v/v) formic acid. The total run time was 5 min. The mobile phase was delivered at a flow rate of 0.4 mL/min, and the optimized gradient contained time-varying amounts of mobile phase B, as follows: 0-0.5 min, 10% B; 0.5-1.5 min, 95% B; 1.5-2.9 min, 95% B; 2.9-3.0 min, 10% B; and 3.0-5.0 min, 10% B. The mass spectrometric assay settings included a positive voltage applied to the ESI capillary of 3500 V, a capillary temperature of 342 °C, and a vaporizer temperature of 358 °C. Argon was used a collision gas at a pressure of 1.5 mTorr. […] For sample extraction by protein precipitation, 5 µL of plasma, 5 µL of microsomal suspension, or 10 µL of homogenized tissue were added to a tube containing 60 µL of internal standard solution and 20 µL of methanol. Samples were then vortex-mixed, centrifuged at 13,000 rpm for 9.5 min, and supernatants collected and stored frozen until analysis. […] The lower limit of quantification was 5 ng/mL, using 5-µL sample volumes.

[3] = C57BL/6, mouse, 10 mg/kg, female OATP2B1(-/-) mice, ibrutinib 10 mg/kg PO, no co-treatment, mean (SD)
[4] = C57BL/6, mouse, 10 mg/kg, female wild-type C57BL/6 mice, ibrutinib 10 mg/kg PO, no co-treatment, mean (SD)
[5] = DBA, mouse, 10 mg/kg, female OATP1B2(-/-) mice, ibrutinib 10 mg/kg PO, no co-treatment, mean (SD)
[6] = DBA, mouse, 10 mg/kg, female wild-type DBA mice, ibrutinib 10 mg/kg PO, no co-treatment, mean (SD)
[7] = FVB, mouse, 4 mg/kg, female wild-type FVB mice, ibrutinib 4 mg/kg oral, cotreatment cobicistat 30 mg/kg, mean (SE)
[8] = FVB, mouse, 10 mg/kg, female CYP3A-/- mice, ibrutinib 10 mg/kg oral, cotreatment cobicistat 30 mg/kg, mean (SE)
[9] = FVB, mouse, 10 mg/kg, female CYP3A-/- mice, ibrutinib 10 mg/kg oral, cotreatment corn oil, mean (SE)
[10] = FVB, mouse, 10 mg/kg, female CYP3A-/- mice, ibrutinib 10 mg/kg oral, no cotreatment, mean (SE)
[11] = FVB, mouse, 10 mg/kg, female wild-type FVB mice, ibrutinib 10 mg/kg oral single dose, cotreatment cobicistat 30 mg/kg, mean (SE)
[12] = FVB, mouse, 10 mg/kg, female wild-type FVB mice, ibrutinib 10 mg/kg oral single dose, cotreatment corn oil, mean (SE)
[13] = FVB, mouse, 10 mg/kg, female wild-type FVB mice, ibrutinib 10 mg/kg oral, cotreatment PEG400, mean (SE)
[14] = FVB, mouse, 10 mg/kg, female wild-type FVB mice, ibrutinib 10 mg/kg oral, cotreatment cobicistat 30 mg/kg, steady-state, mean (SE)
[15] = FVB, mouse, 10 mg/kg, female wild-type FVB mice, ibrutinib 10 mg/kg oral, cotreatment corn oil, steady-state, mean (SE)
[16] = FVB, mouse, 10 mg/kg, female wild-type FVB mice, ibrutinib 10 mg/kg oral, cotreatment ketoconazole 50 mg/kg, mean (SE)
[17] = FVB, mouse, 10 mg/kg, female wild-type FVB mice, ibrutinib 10 mg/kg oral, no cotreatment, mean (SE)

**Q.** Which “IIV Ka” value ([1]; inter-individual variability) does the source give for `C=CC(=O)N1CCC[C@@H](n2nc(-c3ccc(Oc4ccccc4)cc3)c3c(N)ncnc32)C1` [Ibrutinib] here?
**A.** The value was 0.209.

**Q.** And the “IIV Lag” value ([1]; inter-individual variability)?
**A.** The value was 0.0264.

**Q.** What about the “IIV Vc” value ([1]; inter-individual variability) of the same compound?
**A.** Its value is 0.167.

**Q.** What about the “IIV Vp” value ([1]; inter-individual variability) of the same compound?
**A.** Its value is 0.295.

**Q.** And the “Ka (absorption rate constant)” value [1]?
**A.** Its value is 0.340 h⁻¹.

**Q.** And the “Lag (lag time)” value [1]?
**A.** The value was 0.0324 h.

**Q.** And the “RV IBU” value ([1]; residual variability)?
**A.** The value was 0.425.

**Q.** And the “ibrutinib AUC increase” value ([2]; CYP3A-/- mice compared with wild-type mice, oral ibrutinib)?
**A.** Its value is “about 8 fold”.

**Q.** And the “pharmacokinetic profile of ibrutinib with vs without cobicistat” value ([2]; CYP3A-/- mice, oral ibrutinib, P > 0.05)?
**A.** Its value is “similar”.

**Q.** What about the “increase in exposure to ibrutinib” value ([2]; female wild-type mice, oral ibrutinib 10 mg/kg 30 minutes after oral ketoconazole 50 mg/kg vs vehicle) of the same compound?
**A.** Its value is “about 11 fold”.

**Q.** What about the AUC(0-t) [2, 3] of the same compound?
**A.** Its AUC(0-t) is 1750 ng·h/mL.

**Q.** And the AUC(0-t) [2, 4]?
**A.** Its AUC(0-t) is 1450 ng·h/mL.

**Q.** And the Cmax [2, 3]?
**A.** The Cmax was 1250 ng/mL.

**Q.** What about the Cmax [2, 4] of the same compound?
**A.** The Cmax was 1420 ng/mL.

**Q.** And the AUC(0-t) [2, 5]?
**A.** The AUC(0-t) was 2100 ng·h/mL.

**Q.** And the AUC(0-t) [2, 6]?
**A.** The AUC(0-t) was 2720 ng·h/mL.

**Q.** And the Cmax [2, 5]?
**A.** The Cmax was 2170 ng/mL.

**Q.** And the Cmax [2, 6]?
**A.** Its Cmax is 1960 ng/mL.

**Q.** What about the AUC(0-t) [2, 7] of the same compound?
**A.** The AUC(0-t) was 1200 ng·h/mL.

**Q.** What about the Cmax [2, 7] of the same compound?
**A.** The Cmax was 589 ng/mL.

**Q.** What about the bioavailability ([2]; FVB, mouse, 4 mg/kg, female wild-type FVB mice, ibrutinib 4 mg/kg oral, cotreatment cobicistat 30 mg/kg) of the same compound?
**A.** The bioavailability was 58%.

**Q.** And the AUC(0-t) [2, 8]?
**A.** The AUC(0-t) was 1660 ng·h/mL.

**Q.** And the AUC(0-t) [2, 9]?
**A.** The AUC(0-t) was 1410 ng·h/mL.

**Q.** And the AUC(0-t) [2, 10]?
**A.** Its AUC(0-t) is 2350 ng·h/mL.

**Q.** What about the AUC(0-t) [2, 11] of the same compound?
**A.** The AUC(0-t) was 2600 ng·h/mL.

**Q.** What about the AUC(0-t) [2, 12] of the same compound?
**A.** Its AUC(0-t) is 284 ng·h/mL.

**Q.** What about the AUC(0-t) [2, 13] of the same compound?
**A.** Its AUC(0-t) is 768 ng·h/mL.

**Q.** What about the AUC(0-t) [2, 14] of the same compound?
**A.** The AUC(0-t) was 2250 ng·h/mL.

**Q.** What about the AUC(0-t) [2, 15] of the same compound?
**A.** Its AUC(0-t) is 459 ng·h/mL.

**Q.** And the AUC(0-t) [2, 16]?
**A.** Its AUC(0-t) is 8320 ng·h/mL.

**Q.** What about the AUC(0-t) [2, 17] of the same compound?
**A.** The AUC(0-t) was 301 ng·h/mL.

**Q.** And the Cmax [2, 8]?
**A.** The Cmax was 845 ng/mL.

**Q.** What about the Cmax [2, 9] of the same compound?
**A.** Its Cmax is 1390 ng/mL.

**Q.** And the Cmax [2, 10]?
**A.** Its Cmax is 1760 ng/mL.

**Q.** What about the Cmax [2, 11] of the same compound?
**A.** The Cmax was 1440 ng/mL.

**Q.** And the Cmax [2, 12]?
**A.** Its Cmax is 292 ng/mL.

**Q.** And the Cmax [2, 13]?
**A.** Its Cmax is 663 ng/mL.

**Q.** And the Cmax [2, 14]?
**A.** The Cmax was 925 ng/mL.

**Q.** And the Cmax [2, 15]?
**A.** The Cmax was 394 ng/mL.

**Q.** And the Cmax [2, 16]?
**A.** Its Cmax is 3100 ng/mL.

**Q.** And the Cmax [2, 17]?
**A.** Its Cmax is 430 ng/mL.

**Q.** What about the bioavailability ([2]; FVB, mouse, 10 mg/kg, female CYP3A-/- mice, ibrutinib 10 mg/kg oral, cotreatment cobicistat 30 mg/kg) of the same compound?
**A.** The bioavailability was 32%.

**Q.** What about the bioavailability ([2]; FVB, mouse, 10 mg/kg, female CYP3A-/- mice, ibrutinib 10 mg/kg oral, cotreatment corn oil) of the same compound?
**A.** The bioavailability was 27%.
